Consider 33 compounds from US9283222B2 (priority 2006, dated 2016).

Read-outs that look alike come from different tables or passages of the source.

The target in the test is Recombinant Human Poly(ADP-Ribose) Polymerase (PARP), PARP-1 (Homo sapiens (Human), UniProt P09874). Conditions: read-out: PARP-1 (Ki).
Setting [1] is: Table 1, text calls the values EC50s.

Recombinant Human Poly(ADP-Ribose) Polymerase (PARP), PARP-1, sequence (P09874 whole entry): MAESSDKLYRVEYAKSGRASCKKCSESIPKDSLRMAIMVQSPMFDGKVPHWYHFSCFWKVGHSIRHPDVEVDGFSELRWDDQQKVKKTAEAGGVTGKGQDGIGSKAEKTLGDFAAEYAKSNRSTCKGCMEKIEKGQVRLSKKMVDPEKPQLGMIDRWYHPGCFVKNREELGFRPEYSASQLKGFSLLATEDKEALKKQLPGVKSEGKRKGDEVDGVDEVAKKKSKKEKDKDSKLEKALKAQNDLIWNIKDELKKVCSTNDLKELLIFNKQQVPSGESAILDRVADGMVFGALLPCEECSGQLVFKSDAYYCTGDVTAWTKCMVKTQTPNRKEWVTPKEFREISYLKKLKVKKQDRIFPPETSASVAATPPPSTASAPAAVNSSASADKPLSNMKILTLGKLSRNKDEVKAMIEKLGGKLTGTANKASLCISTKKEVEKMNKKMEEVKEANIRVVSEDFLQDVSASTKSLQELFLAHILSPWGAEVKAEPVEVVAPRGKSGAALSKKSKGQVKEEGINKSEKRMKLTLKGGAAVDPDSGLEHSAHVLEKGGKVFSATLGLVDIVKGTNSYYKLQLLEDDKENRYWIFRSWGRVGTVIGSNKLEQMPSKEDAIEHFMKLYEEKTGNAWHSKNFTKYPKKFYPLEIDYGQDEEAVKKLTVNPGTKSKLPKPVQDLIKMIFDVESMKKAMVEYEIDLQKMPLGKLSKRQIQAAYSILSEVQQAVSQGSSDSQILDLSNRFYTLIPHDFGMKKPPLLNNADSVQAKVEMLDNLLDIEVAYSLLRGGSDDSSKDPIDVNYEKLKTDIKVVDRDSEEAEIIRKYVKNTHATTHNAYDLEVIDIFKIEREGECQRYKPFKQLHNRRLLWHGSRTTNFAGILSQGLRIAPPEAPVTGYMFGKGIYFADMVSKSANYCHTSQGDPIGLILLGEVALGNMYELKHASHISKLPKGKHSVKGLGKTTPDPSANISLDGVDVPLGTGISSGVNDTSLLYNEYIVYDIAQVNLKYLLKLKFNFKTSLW

The term Ki denotes a dissociation constant, usually derived from enzyme kinetics or from competition with a known ligand. As to `CN1CCCN(C(=O)c2cc(Cc3n[nH]c(=O)c4c3CCCC4)ccc2F)CC1` [Example 502, 4-{4-fluoro-3-[(4-methyl-1,4-diazepan-1-yl)carbonyl]benzyl}-5,6,7,8-tetrahydrophthalazin-1(2H)-one], the inhibition constant Ki under setting [1] is 1.5 nM.
The same measure, in the same setting: under `O=C(c1cc(Cc2n[nH]c(=O)c3c2CCCC3)ccc1F)N1CCC(O)CC1` [Example 503, 4-{4-fluoro-3-[(4-hydroxypiperidin-1-yl)carbonyl]benzyl}-5,6,7,8-tetrahydrophthalazin-1(2H)-one] stands 1.3 nM.
Same read-out and setting: under `CN(C)CCN(C)C(=O)c1cc(Cc2n[nH]c(=O)c3c2CCCC3)ccc1F` [Example 504, N-[2-(dimethylamino)ethyl]-2-fluoro-N-methyl-5-[(4-oxo-3,4,5,6,7,8-hexahydrophthalazin-1-yl)methyl]benzamide] stands 3.6 nM; under `CCN(CC)C(=O)C1CCCN(C(=O)c2cc(Cc3n[nH]c(=O)c4c3CCCC4)ccc2F)C1` (stereo not drawn) [Example 505, N,N-diethyl-1-{2-fluoro-5-[(4-oxo-3,4,5,6,7,8-hexahydrophthalazin-1-yl)methyl]benzoyl}piperidine-3-carboxamide], 6 nM; under `CN1CCCN(C(=O)c2cc(Cc3n[nH]c(=O)c4c3NCCC4)ccc2F)CC1` [Example 509, 8-{4-fluoro-3-[(4-methyl-1,4-diazepan-1-yl)carbonyl]benzyl}-2,3,4,6-tetrahydropyrido[2,3-d]pyridazin-5(1H)-one], 3 nM.
As to `CN(C)CCN(C)C(=O)c1cc(Cc2n[nH]c(=O)c3c2NCCC3)ccc1F` [Example 513, N-[2-(dimethylamino)ethyl]-2-fluoro-N-methyl-5-[(5-oxo-1,2,3,4,5,6-hexahydropyrido[2,3-d]pyridazin-8-yl)methyl]benzamide], the Ki under setting [1] is 6 nM.
Turning to `O=C(c1cc(Cc2n[nH]c(=O)c3c2CCCC3)ccc1F)N1CCN(Cc2cccc(Cl)c2)CC1` [Example 514, 4-(3-{[4-(3-chlorobenzyl)piperazin-1-yl]carbonyl}-4-fluorobenzyl)-5,6,7,8-tetrahydrophthalazin-1(2H)-one], the Ki under setting [1] was found to be 9 nM.
Same read-out and setting: to `O=C(c1cc(Cc2n[nH]c(=O)c3c2CCCC3)ccc1F)N1CCN(c2ccccc2)CC1` [Example 515, 4-{4-fluoro-3-[(4-phenylpiperazin-1-yl)carbonyl]benzyl}-5,6,7,8-tetrahydrophthalazin-1(2H)-one] belongs 3 nM; to `O=C(c1cc(Cc2n[nH]c(=O)c3c2CCCC3)ccc1F)N1CCN(c2ccccc2Cl)CC1` [Example 517, 4-(3-{[4-(2-chlorophenyl)piperazin-1-yl]carbonyl}-4-fluorobenzyl)-5,6,7,8-tetrahydrophthalazin-1(2H)-one], 5 nM.
Same read-out and setting: to `O=C(c1cc(Cc2n[nH]c(=O)c3c2CCCC3)ccc1F)N1CCN(Cc2ccccc2Cl)CC1` [Example 518, 4-(3-{[4-(2-chlorobenzyl)piperazin-1-yl]carbonyl}-4-fluorobenzyl)-5,6,7,8-tetrahydrophthalazin-1(2H)-one] belongs 10 nM.
On the same count and under the same terms, to `NC(=O)C1CCCN(C(=O)c2cc(Cc3n[nH]c(=O)c4c3NCCC4)ccc2F)C1` (stereo not drawn) [Example 519, 1-{2-fluoro-5-[(5-oxo-1,2,3,4,5,6-hexahydropyrido[2,3-d]pyridazin-8-yl)methyl]benzoyl}piperidine-3-carboxamide] belongs 5 nM.
In the case of `CC(=O)N1CCN(C(=O)c2cc(Cc3n[nH]c(=O)c4c3CCCC4)ccc2F)CC1` [Example 520, 4-{3-[(4-acetylpiperazin-1-yl)carbonyl]-4-fluorobenzyl}-5,6,7,8-tetrahydrophthalazin-1(2H)-one], under setting [1], the Ki was 0.1 nM.
Still for that read-out and setting: to `O=C(c1cc(Cc2n[nH]c(=O)c3c2CCCC3)ccc1F)N1CCN(c2ccccc2F)CC1` [Example 523, 4-(4-fluoro-3-{[4-(2-fluorophenyl)piperazin-1-yl]carbonyl}benzyl)-5,6,7,8-tetrahydrophthalazin-1(2H)-one] belongs 13 nM.
Still for that read-out and setting: to `O=C(c1cc(Cc2n[nH]c(=O)c3c2CCCC3)ccc1F)N1CCN(c2ccc(F)cc2F)CC1` [Example 524, 4-(3-{[4-(2,4-difluorophenyl)piperazin-1-yl]carbonyl}-4-fluorobenzyl)-5,6,7,8-tetrahydrophthalazin-1(2H)-one] belongs 5 nM; to `O=C(c1ccccc1)N1CCN(C(=O)c2cc(Cc3n[nH]c(=O)c4c3CCCC4)ccc2F)CC1` [Example 525, 4-{3-[(4-benzoylpiperazin-1-yl)carbonyl]-4-fluorobenzyl}-5,6,7,8-tetrahydrophthalazin-1(2H)-one], 1.6 nM.
Still for that read-out and setting: to `O=C(c1cc(Cc2n[nH]c(=O)c3c2NCCC3)ccc1F)N1CCN(C(=O)N2CCCCC2)CC1` [Example 526, 8-(4-fluoro-3-{[4-(piperidin-1-ylcarbonyl)piperazin-1-yl]carbonyl}benzyl)-2,3,4,6-tetrahydropyrido[2,3-d]pyridazin-5(1H)-one] belongs 4 nM; to `O=C(c1cc(Cc2n[nH]c(=O)c3c2CCCC3)ccc1F)N1CCN(c2cccc(F)c2)CC1` [Example 527, 4-(4-fluoro-3-{[4-(3-fluorophenyl)piperazin-1-yl]carbonyl}benzyl)-5,6,7,8-tetrahydrophthalazin-1(2H)-one], 3 nM; to `O=C(c1cc(Cc2n[nH]c(=O)c3c2CCCC3)ccc1F)N1CCN(c2ccc(F)cc2)CC1` [Example 528, 4-(4-fluoro-3-{[4-(4-fluorophenyl)piperazin-1-yl]carbonyl}benzyl)-5,6,7,8-tetrahydrophthalazin-1(2H)-one], 4 nM.
`O=C(c1cc(Cc2n[nH]c(=O)c3c2CCCC3)ccc1F)N1CCN(c2ccccn2)CC1` [Example 529, 4-{4-fluoro-3-[(4-pyridin-2-ylpiperazin-1-yl)carbonyl]benzyl}-5,6,7,8-tetrahydrophthalazin-1(2H)-one]: the Ki under setting [1] is 2 nM.
Still for that read-out and setting: to `CCN(CC)C(=O)N1CCN(C(=O)c2cc(Cc3n[nH]c(=O)c4c3CCCC4)ccc2F)CC1` [Example 530, N,N-diethyl-4-{2-fluoro-5-[(4-oxo-3,4,5,6,7,8-hexahydrophthalazin-1-yl)methyl]benzoyl}piperazine-1-carboxamide] belongs 2 nM; to `CC(C)N1CCN(C(=O)c2cc(Cc3n[nH]c(=O)c4c3CCCC4)ccc2F)CC1` [Example 531, 4-{4-fluoro-3-[(4-isopropylpiperazin-1-yl)carbonyl]benzyl}-5,6,7,8-tetrahydrophthalazin-1(2H)-one], 2 nM.
Still for that read-out and setting: under `O=C(CN1CCN(C(=O)c2cc(Cc3n[nH]c(=O)c4c3NCCC4)ccc2F)CC1)N1CCCC1` [Example 532, 8-(4-fluoro-3-{[4-(2-oxo-2-pyrrolidin-1-ylethyl)piperazin-1-yl]carbonyl}benzyl)-2,3,4,6-tetrahydropyrido[2,3-d]pyridazin-5(1H)-one] stands 4 nM; under `O=C(c1cc(Cc2n[nH]c(=O)c3c2CCCC3)ccc1F)N1CCN(C(=O)N2CCOCC2)CC1` [Example 533, 4-(4-fluoro-3-{[4-(morpholin-4-ylcarbonyl)piperazin-1-yl]carbonyl}benzyl)-5,6,7,8-tetrahydrophthalazin-1(2H)-one], 2 nM; under `NC(=O)C1CCN(C(=O)c2cc(Cc3n[nH]c(=O)c4c3NCCC4)ccc2F)CC1` [Example 534, 1-{2-fluoro-5-[(5-oxo-1,2,3,4,5,6-hexahydropyrido[2,3-d]pyridazin-8-yl)methyl]benzoyl}piperidine-4-carboxamide], 2 nM.
The same measure, in the same setting: under `O=C(c1cc(Cc2n[nH]c(=O)c3c2NCCC3)ccc1F)N1CCN(CCO)CC1` [Example 535, 8-(4-fluoro-3-{[4-(2-hydroxyethyl)piperazin-1-yl]carbonyl}benzyl)-2,3,4,6-tetrahydropyrido[2,3-d]pyridazin-5(1H)-one] stands 4 nM; under `O=C(CN1CCN(C(=O)c2cc(Cc3n[nH]c(=O)c4c3CCCC4)ccc2F)CC1)N1CCCC1` [Example 537, 4-(4-fluoro-3-{[4-(2-oxo-2-pyrrolidin-1-ylethyl)piperazin-1-yl]carbonyl}benzyl)-5,6,7,8-tetrahydrophthalazin-1(2H)-one], 2.5 nM.
Consider `CC(C)NC(=O)Nc1cc(Cc2n[nH]c(=O)c3c2CCCC3)ccc1F` [Example 538, N-{2-fluoro-5-[(4-oxo-3,4,5,6,7,8-hexahydrophthalazin-1-yl)methyl]phenyl}-N′-isopropylurea], for which the Ki under setting [1] was found to be 374 nM.
For `CCCNC(=O)Nc1cc(Cc2n[nH]c(=O)c3c2CCCC3)ccc1F` [Example 539, N-{2-fluoro-5-[(4-oxo-3,4,5,6,7,8-hexahydrophthalazin-1-yl)methyl]phenyl}-N′-propylurea], under setting [1], the Ki is 191 nM.
Still for that read-out and setting: to `O=C(Nc1cc(Cc2n[nH]c(=O)c3c2CCCC3)ccc1F)NC1CCCC1` [Example 540, N-cyclopentyl-N′-{2-fluoro-5-[(4-oxo-3,4,5,6,7,8-hexahydrophthalazin-1-yl)methyl]phenyl}urea] belongs 204 nM.
Same read-out and setting: to `O=C(Nc1ccc(F)cc1F)Nc1cc(Cc2n[nH]c(=O)c3c2CCCC3)ccc1F` [Example 541, N-(2,4-difluorophenyl)-N′-{2-fluoro-5-[(4-oxo-3,4,5,6,7,8-hexahydrophthalazin-1-yl)methyl]phenyl}urea] belongs 71 nM; to `CC(C)(C)NC(=O)Nc1cc(Cc2n[nH]c(=O)c3c2CCCC3)ccc1F` [Example 542, N-(tert-butyl)-N′-{2-fluoro-5-[(4-oxo-3,4,5,6,7,8-hexahydrophthalazin-1-yl)methyl]phenyl}urea], 548 nM.
For `O=C(OCc1ccccc1)N1CCN(C(=O)c2cc(Cc3n[nH]c(=O)c4c3CCCC4)ccc2F)CC1` [Example 543, benzyl 4-{2-fluoro-5-[(4-oxo-3,4,5,6,7,8-hexahydrophthalazin-1-yl)methyl]benzoyl}piperazine-1-carboxylate], the Ki worked out at 5 nM.
With `O=C(OCc1ccccc1)N1CCCN(C(=O)c2cc(Cc3n[nH]c(=O)c4c3CCCC4)ccc2F)CC1` [Example 544, benzyl 4-{2-fluoro-5-[(4-oxo-3,4,5,6,7,8-hexahydrophthalazin-1-yl)methyl]benzoyl}-1,4-diazepane-1-carboxylate], the Ki under setting [1] came out at 4 nM.
